In ChEMBL document CHEMBL2040759, “Design, synthesis and anticancer activity of nitric oxide donating/chalcone hybrids” (2012):

Assays:
Format in all cases: functional
[1] = Growth inhibition of human […] cells assessed as cell growth at 10^-5 M after 48 hrs by SRB assay; settings: RPMI18226, 48 h, read-out: Activity
NCI-H226 = assay: Growth inhibition of human NCI-H226 cells assessed as cell growth at 10^-5 M after 48 hrs by SRB assay; settings: NCI-H226, 48 h, read-out: Activity
NCI-H460 = assay: Growth inhibition of human NCI-H460 cells assessed as cell growth at 10^-5 M after 48 hrs by SRB assay; settings: NCI-H460, 48 h, read-out: Activity
NCI-H522 = assay: Growth inhibition of human NCI-H522 cells assessed as cell growth at 10^-5 M after 48 hrs by SRB assay; settings: NCI-H522, 48 h, read-out: Activity
HCT-116 = assay: Growth inhibition of human HCT116 cells assessed as cell growth at 10^-5 M after 48 hrs by SRB assay; settings: HCT-116, 48 h, read-out: Activity
HCT-15 = assay: Growth inhibition of human HCT15 cells assessed as cell growth at 10^-5 M after 48 hrs by SRB assay; settings: HCT-15, 48 h, read-out: Activity
KM12 = assay: Growth inhibition of human KM12 cells assessed as cell growth at 10^-5 M after 48 hrs by SRB assay; settings: KM12, 48 h, read-out: Activity
SW-620 = assay: Growth inhibition of human SW620 cells assessed as cell growth at 10^-5 M after 48 hrs by SRB assay; settings: SW-620, 48 h, read-out: Activity
SF-268 = assay: Growth inhibition of human SF268 cells assessed as cell growth at 10^-5 M after 48 hrs by SRB assay; settings: SF-268, 48 h, read-out: Activity
SF-295 = assay: Growth inhibition of human SF295 cells assessed as cell growth at 10^-5 M after 48 hrs by SRB assay; settings: SF-295, 48 h, read-out: Activity
SNB-19 = assay: Growth inhibition of human SNB19 cells assessed as cell growth at 10^-5 M after 48 hrs by SRB assay; settings: SNB-19, 48 h, read-out: Activity
SNB-75 = assay: Growth inhibition of human SNB75 cells assessed as cell growth at 10^-5 M after 48 hrs by SRB assay; settings: SNB-75, 48 h, read-out: Activity
U-251 = assay: Growth inhibition of human U251 cells assessed as cell growth at 10^-5 M after 48 hrs by SRB assay; settings: U-251, 48 h, read-out: Activity
LOX IMVI = assay: Growth inhibition of human LOXIMVI cells assessed as cell growth at 10^-5 M after 48 hrs by SRB assay; settings: read-out: Activity
Malme-3M = assay: Growth inhibition of human MALME-3M cells assessed as cell growth at 10^-5 M after 48 hrs by SRB assay; settings: read-out: Activity
M14 = assay: Growth inhibition of human M14 cells assessed as cell growth at 10^-5 M after 48 hrs by SRB assay; settings: M14, 48 h, read-out: Activity
MDA-MB-435 = assay: Growth inhibition of human MDA-MB-435 cells assessed as cell growth at 10^-5 M after 48 hrs by SRB assay; settings: MDA-MB-435, 48 h, read-out: Activity
SK-MEL-2 = assay: Growth inhibition of human SK-MEL-2 cells assessed as cell growth at 10^-5 M after 48 hrs by SRB assay; settings: SK-MEL-2, 48 h, read-out: Activity
SK-MEL-28 = assay: Growth inhibition of human SK-MEL-28 cells assessed as cell growth at 10^-5 M after 48 hrs by SRB assay; settings: SK-MEL-28, 48 h, read-out: Activity
SK-MEL-5 = assay: Growth inhibition of human SK-MEL-5 cells assessed as cell growth at 10^-5 M after 48 hrs by SRB assay; settings: SK-MEL-5, 48 h, read-out: Activity
OVCAR-3 = assay: Growth inhibition of human OVCAR3 cells assessed as cell growth at 10^-5 M after 48 hrs by SRB assay; settings: OVCAR-3, 48 h, read-out: Activity
OVCAR-4 = assay: Growth inhibition of human OVCAR4 cells assessed as cell growth at 10^-5 M after 48 hrs by SRB assay; settings: OVCAR-4, 48 h, read-out: Activity
OVCAR-5 = assay: Growth inhibition of human OVCAR5 cells assessed as cell growth at 10^-5 M after 48 hrs by SRB assay; settings: OVCAR-5, 48 h, read-out: Activity
OVCAR-8 = assay: Growth inhibition of human OVCAR8 cells assessed as cell growth at 10^-5 M after 48 hrs by SRB assay; settings: OVCAR-8, 48 h, read-out: Activity
786-0 = assay: Growth inhibition of human 786-0 cells assessed as cell growth at 10^-5 M after 48 hrs by SRB assay; settings: 786-0, 48 h, read-out: Activity
A498 = assay: Growth inhibition of human A498 cells assessed as cell growth at 10^-5 M after 48 hrs by SRB assay; settings: A498, 48 h, read-out: Activity
ACHN = assay: Growth inhibition of human ACHN cells assessed as cell growth at 10^-5 M after 48 hrs by SRB assay; settings: read-out: Activity
RXF 393 = assay: Growth inhibition of human RXF393 cells assessed as cell growth at 10^-5 M after 48 hrs by SRB assay; settings: RXF 393, 48 h, read-out: Activity
SN12C = assay: Growth inhibition of human SN12C cells assessed as cell growth at 10^-5 M after 48 hrs by SRB assay; settings: read-out: Activity
TK-10 = assay: Growth inhibition of human TK10 cells assessed as cell growth at 10^-5 M after 48 hrs by SRB assay; settings: TK-10, 48 h, read-out: Activity
DU-145 = assay: Growth inhibition of human DU145 cells assessed as cell growth at 10^-5 M after 48 hrs by SRB assay; settings: DU-145, 48 h, read-out: Activity
MDA-MB-231 = assay: Growth inhibition of human MDA-MB-231 cells assessed as cell growth at 10^-5 M after 48 hrs by SRB assay; settings: MDA-MB-231, 48 h, read-out: Activity
[2] = Growth inhibition of human Hs 578T cells assessed as cell growth at 10^-5 M after 48 hrs by SRB assay; settings: read-out: Activity
BT-549 = assay: Growth inhibition of human BT549 cells assessed as cell growth at 10^-5 M after 48 hrs by SRB assay; settings: BT-549, 48 h, read-out: Activity
T47D = assay: Growth inhibition of human T47D cells assessed as cell growth at 10^-5 M after 48 hrs by SRB assay; settings: read-out: Activity
MDA-MB-468 = assay: Growth inhibition of human MDA-MB-468 cells assessed as cell growth at 10^-5 M after 48 hrs by SRB assay; settings: MDA-MB-468, 48 h, read-out: Activity

`O=C(CO[N+](=O)[O-])Nc1ccc(C(=O)/C=C/c2ccc(Cl)cc2)cc1` showed a growth at 10 µM [1] of -14.2%, a growth at 10 µM (NCI-H226) of 81.7% and a growth at 10 µM (NCI-H460) of 84.9%. The growth at 10 µM (NCI-H522) was 38.7%, the growth at 10 µM (HCT-116) was -49.2% and the growth at 10 µM (HCT-15) was 58.9%. The growth at 10 µM (KM12) was -60.6%, the growth at 10 µM (SW-620) was -61.8% and the growth at 10 µM (SF-268) was 44.9%. For the same compound, the growth at 10 µM (SF-295) was 105%, the growth at 10 µM (SNB-19) was 87.8% and the growth at 10 µM (SNB-75) was 69.7%. The growth at 10 µM (U-251) was 14.9%, the growth at 10 µM (LOX IMVI) was -60.9% and the growth at 10 µM (Malme-3M) was 79.1%. It also gave a growth at 10 µM (M14) of 3.46%, a growth at 10 µM (MDA-MB-435) of -2.76% and a growth at 10 µM (SK-MEL-2) of 81.7%. It also gave a growth at 10 µM (SK-MEL-28) of 86.8%, a growth at 10 µM (SK-MEL-5) of 54.5% and a growth at 10 µM (OVCAR-3) of 0.33%. It also gave a growth at 10 µM (OVCAR-4) of 76.1%, a growth at 10 µM (OVCAR-5) of 67% and a growth at 10 µM (OVCAR-8) of 27.2%. The growth at 10 µM (786-0) was 75%, the growth at 10 µM (A498) was 103% and the growth at 10 µM (ACHN) was 62.3%. The growth at 10 µM (RXF 393) was 72.5%, the growth at 10 µM (SN12C) was 46.8% and the growth at 10 µM (TK-10) was 45.7%. The growth at 10 µM (DU-145) was 79.9%, the growth at 10 µM (MDA-MB-231) was 55% and the growth at 10 µM [2] was 89.7%. The growth at 10 µM (BT-549) was 18.9%, the growth at 10 µM (T47D) was 55.5% and the growth at 10 µM (MDA-MB-468) was 48.7%.
`O=C(CO[N+](=O)[O-])Nc1ccc(C(=O)/C=C/c2ccc3c(c2)OCO3)cc1` gave a growth at 10 µM [1] of 46.8%, a growth at 10 µM (NCI-H226) of 107% and a growth at 10 µM (NCI-H460) of 108%. For the same compound, the growth at 10 µM (NCI-H522) was 97.6%, the growth at 10 µM (HCT-116) was -5.9% and the growth at 10 µM (HCT-15) was 76.7%. It also gave a growth at 10 µM (KM12) of 35.9%, a growth at 10 µM (SW-620) of 47.8% and a growth at 10 µM (SF-268) of 82.4%. For the same compound, the growth at 10 µM (SF-295) was 74.6%, the growth at 10 µM (SNB-19) was 104% and the growth at 10 µM (SNB-75) was 86.3%. For the same compound, the growth at 10 µM (U-251) was 57.3%, the growth at 10 µM (LOX IMVI) was 21.5% and the growth at 10 µM (Malme-3M) was 116%. It also gave a growth at 10 µM (M14) of 81.8%, a growth at 10 µM (MDA-MB-435) of 62.6% and a growth at 10 µM (SK-MEL-2) of 119%. It also gave a growth at 10 µM (SK-MEL-28) of 104%, a growth at 10 µM (SK-MEL-5) of 90.8% and a growth at 10 µM (OVCAR-3) of 80.6%. For the same compound, the growth at 10 µM (OVCAR-4) was 96.1%, the growth at 10 µM (OVCAR-5) was 96.5% and the growth at 10 µM (OVCAR-8) was 75.8%. It also gave a growth at 10 µM (786-0) of 109%, a growth at 10 µM (A498) of 107% and a growth at 10 µM (ACHN) of 99.2%. The growth at 10 µM (RXF 393) was 107%, the growth at 10 µM (SN12C) was 95.4% and the growth at 10 µM (TK-10) was 111%. For the same compound, the growth at 10 µM (DU-145) was 96.7%, the growth at 10 µM (MDA-MB-231) was 87.4% and the growth at 10 µM [2] was 103%. The growth at 10 µM (BT-549) was 87.6%, the growth at 10 µM (T47D) was 83% and the growth at 10 µM (MDA-MB-468) was 91.9%.
